Measurements as given in ChEMBL document CHEMBL4419167, “Compositions and methods for treating respiratory injury or disease” (2018).
Active and inactive are the calls of the source.

What was measured:
Type in all cases: functional, organism-based
[1] = tested on: Mus musculus; test: Suppression of lung injury in mouse model of Pseudomonas aeruginosa PA103 infection-induced lung injury assessed as reduction in lung resistance at 100 ug, ip pre-treated before infection
[2] = tested on: Mus musculus; test: Suppression of lung injury in mouse model of Pseudomonas aeruginosa PA103 infection-induced lung injury assessed as reduction in lung elastance at 100 ug, ip pre-treated before infection
[3] = tested on: Mus musculus; test: Suppression of lung injury in mouse model of Pseudomonas aeruginosa PA103 infection-induced lung injury assessed as increase in compliance at 100 ug, ip pre-treated before infection
[4] = tested on: Mus musculus; test: Suppression of lung injury in mouse model of Pseudomonas aeruginosa PA103 infection-induced lung injury assessed as improve in lung volume at 100 ug, ip pre-treated before infection
[5] = tested on: Mus musculus; test: Suppression of lung injury in mouse model of Pseudomonas aeruginosa PA103 infection-induced lung injury assessed as reduction in lavage protein concentration at 100 ug, ip pre-treated before infection
[6] = tested on: Mus musculus; test: Suppression of lung injury in mouse model of Pseudomonas aeruginosa PA103 infection-induced lung injury assessed as reduction in lavage cell counts at 100 ug, ip pre-treated before infection
[7] = tested on: Mus musculus; test: Suppression of lung injury in mouse model of Pseudomonas aeruginosa PA103 infection-induced lung injury assessed as reduction in lavage IL6 levels at 100 ug, ip pre-treated before infection
[8] = tested on: Mus musculus; test: Suppression of lung injury in mouse model of Pseudomonas aeruginosa PA103 infection-induced lung injury assessed as reduction in cell infiltration at 100 ug, ip pre-treated before infection by H and E staining based assay
[9] = tested on: Mus musculus; test: Suppression of lung injury in mouse model of influenza A virus H1N1 infection-induced lung injury assessed as increase in mouse survival at 30 ug/ml dosed via drinking water
[10] = tested on: Mus musculus; test: Suppression of lung injury in mouse model of influenza A virus H1N1 infection-induced lung injury assessed as decrease in lung elastance at 30 ug/ml dosed via drinking water
[11] = tested on: Mus musculus; test: Suppression of lung injury in mouse model of influenza A virus H1N1 infection-induced lung injury assessed as increase in lung compliance at 30 ug/ml dosed via drinking water
[12] = tested on: Mus musculus; test: Suppression of lung injury in mouse model of influenza A virus H1N1 infection-induced lung injury assessed as decrease in lavage protein concentration at 30 ug/ml dosed via drinking water
[13] = tested on: Mus musculus; test: Suppression of lung injury in mouse model of influenza A virus H1N1 infection-induced lung injury assessed as decrease in lavage cell counts at 30 ug/ml dosed via drinking water
[14] = tested on: Mus musculus; test: Suppression of lung injury in mouse model of influenza A virus H1N1 infection-induced lung injury assessed as decrease in lung edema at 30 ug/ml dosed via drinking water
[15] = tested on: Mus musculus; test: Suppression of lung injury in mouse model of influenza A virus H1N1 infection-induced lung injury assessed as decrease in cell infiltration at 30 ug/ml dosed via drinking water by H and E staining based assay
[16] = tested on: Mus musculus; test: Suppression of lung injury in mouse model of Pseudomonas aeruginosa PA103 infection-induced lung injury assessed as reduction in lavage TNFalpha levels at 100 ug, ip pre-treated before infection
[17] = tested on: Mus musculus; test: Suppression of lung injury in mouse model of Pseudomonas aeruginosa PA103 infection-induced lung injury assessed as reduction in lavage IL-1beta levels at 100 ug, ip pre-treated before infection
[18] = tested on: Mus musculus; test: Suppression of lung injury in mouse model of Pseudomonas aeruginosa PA103 infection-induced pneumonia assessed as reduction in lavage cell counts at 30 or 150 ug, ip pre-treated before infection
[19] = tested on: Mus musculus; test: Suppression of lung injury in mouse model of Pseudomonas aeruginosa PA103 infection-induced pneumonia assessed as reduction in lavage protein concentration at 30 or 150 ug, ip pre-treated before infection
[20] = tested on: Mus musculus; test: Suppression of lung injury in mouse model of Pseudomonas aeruginosa PA103 infection-induced pneumonia assessed as reduction in lavage IL6 levels at 30 or 150 ug, ip pre-treated before infection
[21] = tested on: Mus musculus; test: Suppression of lung injury in mouse model of Pseudomonas aeruginosa PA103 infection-induced pneumonia assessed as reduction in neutrophil infiltration at 30 or 150 ug, ip pre-treated before infection by May-Grunwald and Geimsa staining based assay
[22] = tested on: Mus musculus; test: Suppression of lung injury in mouse model of Pseudomonas aeruginosa PA103 infection-induced pneumonia assessed as reduction in cell infiltration at 30 or 150 ug, ip pre-treated before infection by H and E staining based assay
[23] = tested on: Mus musculus; test: Suppression of smoke-induced chronic lung inflammation in mouse assessed as reduction in lavage cell counts at 100 ug, ip administered as single dose injected after 5 weeks cigarette smoke exposure
[24] = tested on: Mus musculus; test: Suppression of smoke-induced chronic lung inflammation in mouse assessed as reduction in lavage protein concentration at 100 ug, ip administered as single dose injected after 5 weeks cigarette smoke exposure
[25] = tested on: Mus musculus; test: Suppression of smoke-induced chronic lung inflammation in mouse assessed as reduction in lavage IL12 levels at 100 ug, ip administered as single dose injected after 5 weeks cigarette smoke exposure
[26] = tested on: Mus musculus; test: Suppression of IMQ-induced psoriasis in BALB/c mouse model of skin inflammation assessed as reduction in spleen weight at 1 or 5 mg/kg applied topically on daily basis
[27] = tested on: Mus musculus; test: Suppression of IMQ-induced psoriasis in BALB/c mouse model of skin inflammation assessed as reduction in ear thickness at 1 or 5 mg/kg applied topically on daily basis
[28] = tested on: Mus musculus; test: Suppression of IMQ-induced psoriasis in BALB/c mouse model of skin inflammation assessed as reduction in psoriasis index at 1 or 5 mg/kg applied topically on daily basis
[29] = tested on: Mus musculus; test: Suppression of IMQ-induced psoriasis in BALB/c mouse model of skin inflammation assessed as effect on gross appearance at 1 or 5 mg/kg applied topically on daily basis
[30] = tested on: Mus musculus; test: Suppression of IMQ-induced psoriasis in BALB/c mouse model of skin inflammation assessed as reduction in spleen weight at 1 or 5 mg/kg dosed via drinking water on daily basis
[31] = tested on: Mus musculus; test: Suppression of IMQ-induced psoriasis in BALB/c mouse model of skin inflammation assessed as reduction in ear thickness at 1 or 5 mg/kg dosed via drinking water on daily basis
[32] = tested on: Mus musculus; test: Suppression of IMQ-induced psoriasis in BALB/c mouse model of skin inflammation assessed as reduction in psoriasis index at 1 or 5 mg/kg dosed via drinking water on daily basis
[33] = tested on: Mus musculus; test: Suppression of IMQ-induced psoriasis in BALB/c mouse model of skin inflammation assessed as effect on gross appearance at 1 or 5 mg/kg dosed via drinking water on daily basis
[34] = tested on: Mus musculus; test: Suppression of dexamethasone-induced muscle atrophy in C57BL mouse assessed as reduction in TRAF6 protein in TA muscle at 0.5 to 5 mg/kg/day dosed via drinking water by immunoblotting analysis
[35] = tested on: Mus musculus; test: Suppression of dexamethasone-induced muscle atrophy in C57BL mouse assessed as reduction in tibialis anterior muscle loss at 0.5 to 5 mg/kg/day dosed via drinking water
[36] = tested on: Mus musculus; test: Suppression of dexamethasone-induced muscle atrophy in C57BL mouse assessed as prevention of muscle wasting in TA muscle at 0.5 to 5 mg/kg/day dosed via drinking water by H and E staining based assay
[37] = tested on: Mus musculus; test: Antiinflammatory activity in C57/BL mouse model of lung transplant acute rejection transplanted with BALB/C mouse left lung assessed as reduction in cell infiltration in lung at 5 mg/kg/day, ip for 2 days followed by dosing at 5 mg/kg/day via drinking water for 5 days
[38] = tested on: Mus musculus; test: Antiinflammatory activity in C57/BL mouse model of lung transplant acute rejection transplanted with BALB/C mouse left lung assessed as amelioration of neutrophilia infiltration at 5 mg/kg/day, ip for 2 days followed by dosing at 5 mg/kg/day via drinking water for 5 days
[39] = tested on: Mus musculus; test: Suppression of lung injury in mouse model of Pseudomonas aeruginosa PA103 infection-induced pneumonia assessed as reduction in lavage TNFalpha levels at 30 or 150 ug, ip pre-treated before infection
[40] = tested on: Mus musculus; test: Suppression of lung injury in mouse model of Pseudomonas aeruginosa PA103 infection-induced pneumonia assessed as reduction in lavage IL-1beta levels at 30 or 150 ug, ip pre-treated before infection
[41] = tested on: Mus musculus; test: Suppression of smoke-induced chronic lung inflammation in mouse assessed as reduction in lavage IL-1beta levels at 100 ug, ip administered as single dose injected after 5 weeks cigarette smoke exposure
[42] = tested on: Mus musculus; test: Suppression of smoke-induced chronic lung inflammation in mouse assessed as reduction in lavage IL10 levels at 100 ug, ip administered as single dose injected after 5 weeks cigarette smoke exposure
[43] = tested on: Mus musculus; test: Suppression of smoke-induced chronic lung inflammation in mouse assessed as reduction in lavage TNFalpha levels at 100 ug, ip administered as single dose injected after 5 weeks cigarette smoke exposure
[44] = tested on: Mus musculus; test: Suppression of smoke-induced chronic lung inflammation in mouse assessed as reduction in lavage IL2 levels at 100 ug, ip administered as single dose injected after 5 weeks cigarette smoke exposure
[45] = tested on: Mus musculus; test: Suppression of smoke-induced chronic lung inflammation in mouse assessed as reduction in lavage IL6 levels at 100 ug, ip administered as single dose injected after 5 weeks cigarette smoke exposure
[46] = tested on: Mus musculus; test: Suppression of smoke-induced chronic lung inflammation in mouse assessed as reduction in lavage IFNgamma levels at 100 ug, ip administered as single dose injected after 5 weeks cigarette smoke exposure

Measured: Activity

c1ccc(-c2ccc(CNCCNCc3ccc(-c4ccccn4)cc3)cc2)nc1
active: [1] | [2] | [3] | [4] | [5] | [6] | [7] | [8] | [9] | [10] | [11] | [12] | [13] | [14] | [15] | [16] | [17]

c1cnc(-c2ccc(CNCCNCc3ccc(-c4ncccn4)cc3)cc2)nc1
active: [18] | [19] | [20] | [21] | [22] | [23] | [24] | [25] | [26] | [27] | [28] | [29] | [30] | [31] | [32] | [33] | [34] | [35] | [36] | [37] | [38] | [39] | [40] | [41] | [42] | [43] | [44] | [45] | [46]
